The values below come from patent publication US11246929B2, “Combination of a protein kinase inhibitor and an additional chemotherapeutic agent” (Merck Patent GmbH, priority 2016, dated 2022).

Read-outs that look alike come from different tables or passages of the source. Where only a bound is given, the exact number is not on record here.

For one data set, the system named is panel of 93 cell lines. Briefly: SRB growth inhibition, 93 cell lines panel (summary). Format: cell-based. The protocol: (§1) 90 μl of cells, after a 48-hour pre-growth period, were treated by mixing with 10 μl of the compound-containing media (resulting in a final DMSO concentration of 0.1%).
(§2) This is the drug concentration causing a 50% reduction compared to the net protein increase in control cells during the drug incubation period. In other words, G150 is IC50 corrected for time zero. […] TGI was calculated from Ti=Tz. […] It was calculated as 100×[(Ti−Tz)/Tz]=−50.
The * or ** mark the lowest or highest tested concentrations. […] Both uM and μM stand for micromolar.

In another data set the test system is HEPG2. Briefly: cells. Particulars: Homo sapiens, HepG2, read-out: GI50 of etoposide (±Compound 1). The protocol:
as §1, §2

The next data set has as its system MT3. Briefly: cells. Particulars: MT-3, read-out: GI50 of etoposide (±Compound 1). The protocol:
as §1, §2

A further data set deals with PLCPRF5. Briefly: cells. To be noted: Homo sapiens, PLC-PRF-5, read-out: GI50 of etoposide (±Compound 1). The protocol: as §1, §2
The next data set has as its system SKHEP1. Briefly: cells. Particulars: Homo sapiens, SK-HEP1, read-out: GI50 of etoposide (±Compound 1). The protocol: as §1, §2
The next data set deals with CACO2. Briefly: cells. To be noted: Homo sapiens, Caco-2, read-out: GI50 of etoposide (±Compound 1).
Another data set has as its system 1587MG. Briefly: SRB growth inhibition, 93 cell lines panel. Particulars: read-out: GI50 of etoposide (±Compound 1).
The subject of a further data set is NCI-H460 xenograft. Format: in vivo.
For data set [1], the system named is myeloid and lymphoid cells. Briefly: Hematology study, blood cell counts in immunocompetent mice. Particulars: addition of Compound 1 to etoposide/cisplatin. It is filed as in vivo, mouse. From the text:
For efficacy xenograft study 1014-1-58/BKU00105 female CD1 nu/nu mice [internal Batch ID 04108; Charles River Laboratories, Sulzfeld, Germany], aged 6-8 weeks, were used. For the hematology study 1015-1-3/BKU00106 immunocompetent female CD1 mice [internal Batch ID1406; Janvier Labs, Genest-Saint-Isle, France], aged 12 weeks were used. The mice were acclimatized to the housing conditions for 1 week. They were kept in groups of 10 in polysulfone cages Type III (42.5×26.6×15.5 cm; Techniplast, Hohenpeissenberg). Bedding consisted of aspen chips (E. Becker, Castrop-Rauxel). Room temperature was 24+/−2° C. and relative humidity was 50+/−10% at 15 air changes per hour. Drinking water (provided ad libitum) was supplemented with 1 mg/mL Chlorine and was adjusted to a pH of 6.5 with HCl. […]
The hematology data were evaluated by RM-ANOVA and Bonferroni multiple comparisons post test comparing the blood cell counts of the respective combination groups to the blood cell counts of the SoC only treatment group.
In parallel with the antitumor effect of the etoposide/cisplatin/Compound 1 combination, the effect on myeloid and lymphoid cells was investigated in immunocompetent mice (refer to ONC1015-1-3AZ). […] Blood cell count was determined under treatment (days 5 and 11) and during recovery (days 18 and 24).

Description for 1587MG: Cell growth and treatment were performed in 96-well microtitre plates CELLSTAR® (Greiner Bio-One, Germany). Cells harvested from exponential phase cultures by trypsinization or by splitting (in the case of cells growing in suspension) were plated in 90 μl of media at optimal seeding densities. The optimal seeding density for each cell line was determined to ensure exponential growth for the duration of the experiment. All cells growing without anticancer agents were sub-confluent by the end of the treatment, as determined by visual inspection. […] The cells were allowed to grow at 37° C. for 72 (or 120) hours. […] Cells were fixed to the surface by addition of 10% TCA (for adherent growing cells) or 50% TCA (for semi-adherent growing cell or cells growing in suspension). After an hour of incubation at 4° C. plates were washed twice with 200 μl of deionized water and dried. Cells were then stained with 100 μl of 0.04% w/v SRB. The plates were incubated at room temperature for at least 30 min and washed six times with 1% acetic acid to remove unbound stain. […] Using these measurements, cellular responses can be calculated for incomplete inhibition of cell growth (GI), complete inhibition of cell growth (TGI) and net loss of cells (LC) due to compound activity. […] TGI was calculated from Ti=Tz.
Description for CACO2: Cell growth and treatment were performed in 96-well microtitre plates CELLSTAR® (Greiner Bio-One, Germany). Cells harvested from exponential phase cultures by trypsinization or by splitting (in the case of cells growing in suspension) were plated in 90 μl of media at optimal seeding densities. The optimal seeding density for each cell line was determined to ensure exponential growth for the duration of the experiment. All cells growing without anticancer agents were sub-confluent by the end of the treatment, as determined by visual inspection.
90 μl of cells, after a 48-hour pre-growth period, were treated by mixing with 10 μl of the compound-containing media (resulting in a final DMSO concentration of 0.1%). The cells were allowed to grow at 37° C. for 72 (or 120) hours.
Cells were fixed to the surface by addition of 10% TCA (for adherent growing cells) or 50% TCA (for semi-adherent growing cell or cells growing in suspension). After an hour of incubation at 4° C. plates were washed twice with 200 μl of deionized water and dried. Cells were then stained with 100 μl of 0.04% w/v SRB. […]
Using these measurements, cellular responses can be calculated for incomplete inhibition of cell growth (GI), complete inhibition of cell growth (TGI) and net loss of cells (LC) due to compound activity. […] TGI was calculated from Ti=Tz. […] It was calculated as 100×[(Ti−Tz)/Tz]=−50.
Excerpt for NCI-H460 xenograft: The NCI-H460 was chosen as a model relatively insensitive to IR treatment.

As to `COc1cc([C@@H]2c3cc4c(cc3[C@@H](O[C@@H]3O[C@@H]5CO[C@@H](C)O[C@H]5[C@H](O)[C@H]3O)[C@H]3COC(=O)[C@H]23)OCO4)cc(OC)c1O` [Etoposide], the GI50 (usually the concentration that inhibits growth by half) with panel of 93 cell lines (read-out: Average GI50) was 1700 nM; in the data set with panel of 93 cell lines (read-out: Median GI50) it was 900 nM; in the data set on panel of 93 cell lines (read-out: Most resistant cell line (GI50)), above 10000 nM; with panel of 93 cell lines (read-out: Most sensitive cell line (GI50)), 38 nM; in the data set with HEPG2 it was 806 nM; in the data set on MT3, 609 nM. In addition, the GI50 in the data set with PLCPRF5 was determined as 6250 nM; with SKHEP1 it was 83 nM; with CACO2, 3650 nM; in the data set on 1587MG it was 2400 nM.
In the case of `COc1ccc([C@@H](O)c2cc(-c3ncnc4cc(N5CCOCC5)ccc34)c(F)cc2Cl)nn1` [Compound 1, (S)-[2-chloro-4-fluoro-5-(7-morpholin-4-yl-quinazolin-4-yl)-phenyl]-(6-methoxy-pyridazin-3-yl)-methanol], the tumor response entry in the data set with NCI-H460 xenograft (6 weeks IR (60 Gy total) + Compound 1 25 and 50 mg/kg po) was “regressed during the treatment and observation period up to approximately day 90”. In addition, in the data set on NCI-H460 xenograft (6 weeks IR + 50 mg/kg, 42 days of treatment plus 68 days observation), the “tumor volume vs starting volume” value is reported as “did not exceed their starting volume”. The tolerability entry in the data set with NCI-H460 xenograft (6 weeks IR + Compound 1) was “generally well tolerated”. The “blood cell reduction and recovery” value in data set [1] was “did not significantly affect blood cell reduction nor the recovery phase”.
